According to patent publication US20100009970A1, “COMPOSITIONS AND METHODS FOR TREATMENT OF VIRAL DISEASES” (Combinatorx (Singapore) Pte. Ltd., priority 2008, published 2010):
“And” between values parts separate entries of the source, which are not always exact repeats. Equal entries are not always repeated. Structures can show the parent of a compound that is named as a salt. Where two headings read alike, the source gives them in different places.

Tests used:
[1] = tested on: Huh7 cells expressing a subgenomic RNA replicon of Con1 (genotype 1b) sequence origin; assay: microbe, parasite or virus in culture; details: Hepatitis C virus
in vitro = details: human
[2] = tested on: Huh7 cells expressing a subgenomic RNA replicon of Con1 (genotype 1b) sequence origin
[3] = GETYPE1B, Huh-7, 72 h, read-out: Max Effect @CC30 (inhibition)
[4] = Huh-7, 48 h, read-out: Max Effect
[5] = Huh-7, read-out: IC50 (uM) [SG]
[6] = Huh-7, read-out: Max Effect@CC30 (inhibition)

SMILES: CN[C@H]1CC[C@@H](c2ccc(Cl)c(Cl)c2)c2ccc(S(N)(=O)=O)cc21 [Sertraline Sulfonamide NH2, (5S,8S)-5-(3,4-dichlorophenyl)-8-(methylamino)-5,6,7,8-tetrahydronaphthalene-2-sulfonamide]
- Emax [1, 3]: 63.5 ± 6.4%
- IC50 ([1]; Huh-7, 48 h): 6.02 µM
- Emax [1, 4]: 91%
- IC50 ([1]; Huh-7, 72 h): 3.65 ± 2.3 µM
- IC50 [1, 5]: 3.65 ± 2.3 µM
- Emax [1, 6]: 63.5 ± 6.4%
- CC50 (in vitro; CC50): > 13.4 µM
- CC50 (in vitro; CC50 (uM)): 9.99 ± 4.4 µM
- CC50 (in vitro; CC50 (uM) [SG]): 9.99 ± 4.4 µM
- Synergy Score [2]: 0.49
- TI (CC50/IC50) [2]: >2.226

SMILES: CN[C@H]1CC[C@@H](c2ccc(Cl)c(Cl)c2)c2ccc(CNS(C)(=O)=O)cc21 [N-(((5S,8S)-5-(3,4-dichlorophenyl)-8-(methylamino)-5,6,7,8-tetrahydronaphthalen-2-yl)methyl)methanesulfonamide]
- Emax [1, 3]: 59.7 ± 3.5%
- IC50 ([1]; Huh-7, 48 h): 5.97 µM
- Emax [1, 4]: 100%
- IC50 ([1]; Huh-7, 72 h): 3.28 ± 1.5 µM
- IC50 [1, 5]: 3.28 ± 1.5 µM
- Emax [1, 6]: 59.7 ± 3.5%
- CC50 (in vitro; CC50): 10.5 µM
- CC50 (in vitro; CC50 (uM)): 11.2 ± 0.3 µM
- CC50 (in vitro; CC50 (uM) [SG]): 11.2 ± 0.3 µM
- Synergy Score [2]: 0.55
- TI (CC50/IC50) [2]: 1.761

SMILES: CN(C)[C@H]1CC[C@@H](c2ccc(Cl)c(Cl)c2)c2ccccc21 [N,N-Dimethyl Sertraline, (1S,4S)-4-(3,4-dichlorophenyl)-N,N-dimethyl-1,2,3,4-tetrahydronaphthalen-1-amine]
- Emax [1, 3]: 99%
- IC90 ([1]; Huh-7): 18.1 ± 2.77 µM
- IC50 ([1]; Huh-7, 48 h): 7.77 µM
- Emax [1, 4]: 70%
- IC50 ([1]; Huh-7, 72 h): 5.22 ± 2.2 µM
- IC90 ([1]; Huh-7, 72 h): 17.1 ± 2.93 µM
- IC50 [1, 5]: 6.07 ± 2.2 µM
- Emax [1, 6]: 99%
- CC50 (in vitro; CC50): > 13.4 µM
- CC50 (in vitro; CC50 (uM)): 72.2 µM
- CC50 (in vitro; CC50 (uM) [SG]): 64.7 ± 10.6 µM
- Synergy Score [2]: 0.89
- TI (CC50/IC50) [2]: >1.727

SMILES: CNC1CCC(c2ccc(C(F)(F)F)cc2)c2ccccc21 (stereo not shown) [Sertraline B-Ring para-Trifluoromethane, N-methyl-4-(4-(trifluoromethyl)phenyl)-1,2,3,4-tetrahydronaphthalen-1-amine]
- Emax [1, 3]: 0%
- IC50 ([1]; Huh-7, 48 h): 12.2 µM
- Emax [1, 4]: 99%
- IC50 ([1]; Huh-7, 72 h): 13.4 µM
- IC50 [1, 5]: 13.4 µM
- Emax [1, 6]: 0%
- CC50 (in vitro; CC50): 15.9 µM
- CC50 (in vitro; CC50 (uM)): 14.2 µM
- CC50 (in vitro; CC50 (uM) [SG]): 14.2 µM
- Synergy Score [2]: 1.93
- TI (CC50/IC50) [2]: 1.299

SMILES: CN[C@H]1CC[C@@H](c2ccc(Cl)c(Cl)c2)c2ccc(C#N)cc21 [Sertraline Nitrile, (5S,8S)-5-(3,4-dichlorophenyl)-8-(methylamino)-5,6,7,8-tetrahydronaphthalene-2-carbonitrile]
- Emax [1, 3]: 87%
- IC50 ([1]; Huh-7, 48 h): 7.46 µM
- Emax [1, 4]: 89%
- IC50 ([1]; Huh-7, 72 h): 4.81 µM
- IC50 [1, 5]: 4.81 µM
- Emax [1, 6]: 87%
- CC50 (in vitro; CC50): > 13.4 µM
- CC50 (in vitro; CC50 (uM)): 14.8 µM
- CC50 (in vitro; CC50 (uM) [SG]): 14.8 µM
- Synergy Score [2]: 0.52
- TI (CC50/IC50) [2]: >1.796

SMILES: COC1CC[C@@H](c2ccc(Cl)c(Cl)c2)c2ccccc21 (stereo partly drawn) [Methoxy 4S-Sertraline]
- IC50 ([1]; Huh-7): 22.7 µM
- CC50 (in vitro; CC50 (uM)): > 50 µM
- IC50 [2]: 26.4 µM
- IC90 [2]: 46.1 µM and 46.9 µM
- Max Effect@CC30 (inhibition) [2]: 93.98% and 47.76%

SMILES: NC1CCC(c2ccc(Cl)c(Cl)c2)c2ccccc21 (racemic)
- IC50 ([1]; Huh-7, 48 h): 6.26 µM
- Emax [1, 4]: 99%
- CC50 (in vitro; CC50): 7.84 µM
- Synergy Score [2]: 1.51
- TI (CC50/IC50) [2]: 1.252

SMILES: CN[C@H]1CC[C@@H](c2ccc(Cl)c(Cl)c2)c2ccc(S(=O)(=O)N(C)C)cc21 [Sertraline N,N-dimethylsulfonamide, (5S,8S)-5-(3,4-dichlorophenyl)-N,N-dimethyl-8-(methylamino)-5,6,7,8-tetrahydronaphthalene-2-sulfonamide]
- Emax [1, 3]: 38%
- IC50 ([1]; Huh-7, 48 h): 7.3 µM
- Emax [1, 4]: 91%
- IC50 ([1]; Huh-7, 72 h): 6.69 µM
- IC50 [1, 5]: 6.69 µM
- Emax [1, 6]: 38%
- CC50 (in vitro; CC50): 7.85 µM
- CC50 (in vitro; CC50 (uM)): 8.87 µM
- CC50 (in vitro; CC50 (uM) [SG]): 8.87 µM
- Synergy Score [2]: 0.53
- TI (CC50/IC50) [2]: 1.076

SMILES: CN[C@H]1CC[C@@H](c2ccc(Cl)c(Cl)c2)c2ccc(S(=O)(=O)NC)cc21 [Sertraline Sulfonamide, (5S,8S)-5-(3,4-dichlorophenyl)-N-methyl-8-(methylamino)-5,6,7,8-tetrahydronaphthalene-2-sulfonamide]
- Emax [1, 3]: 40.5 ± 5%
- IC50 ([1]; Huh-7, 48 h): 7.26 µM
- Emax [1, 4]: 94%
- IC50 ([1]; Huh-7, 72 h): 6.87 ± 0.2 µM
- IC50 [1, 5]: 6.87 ± 0.2 µM
- Emax [1, 6]: 40.5 ± 5%
- CC50 (in vitro; CC50): 11.6 µM
- CC50 (in vitro; CC50 (uM)): 13.04 ± 0.1 µM
- CC50 (in vitro; CC50 (uM) [SG]): 13.04 ± 0.1 µM
- Synergy Score [2]: 0.43
- TI (CC50/IC50) [2]: 1.605

SMILES: CN[C@H]1CC[C@@H](c2ccc(Cl)c(Cl)c2)c2ccc(C(=O)OC)cc21 [Sertraline A-ring Methyl Ester, (5S,8S)-methyl 5-(3,4-dichlorophenyl)-8-(methylamino)-5,6,7,8-tetrahydronaphthalene-2-carboxylate]
- Emax [1, 3]: 78%
- IC50 ([1]; Huh-7, 48 h): 6.42 µM
- Emax [1, 4]: 99%
- IC50 ([1]; Huh-7, 72 h): 9.13 µM
- IC50 [1, 5]: 9.13 µM
- Emax [1, 6]: 78%
- CC50 (in vitro; CC50): 8.01 µM
- CC50 (in vitro; CC50 (uM)): 13.7 µM
- CC50 (in vitro; CC50 (uM) [SG]): 13.7 µM
- Synergy Score [2]: 0.51
- TI (CC50/IC50) [2]: 1.248

SMILES: CN[C@H]1CC[C@@H](c2ccc(Cl)c(Cl)c2)c2ccc(NS(=O)(=O)C3CC3)cc21 [N-((5S,8S)-5-(3,4-dichlorophenyl)-8-(methylamino)-5,6,7,8-tetrahydronaphthalen-2-yl)cyclopropanesulfonamide]
- IC50 ([1]; Huh-7): 5.63 µM
- IC90 ([1]; Huh-7): 10.7 µM
- IC50 [1, 5]: 5.62 µM
- Emax [1, 6]: 58.8%
- CC50 (in vitro; CC50 (uM)): 7.45 µM
- CC50 (in vitro; CC50 (uM) [SG]): 7.45 µM
- Max Effect@CC30 (inhibition) [2]: 56.82%

SMILES: COC1CC[C@@H](c2ccc(Cl)c(Cl)c2)c2ccccc21 (single isomer, unassigned) [Methoxy 4S-Sertraline-P1]
- IC90 ([1]; Huh-7): 46.1 µM
- IC50 [1, 5]: 22.7 µM
- CC50 (in vitro; CC50 (uM) [SG]): > 50 µM
- Max Effect@CC30 (inhibition) [2]: 93.98%

SMILES: C/C1=C2/[N-]C([C@H](CC(N)=O)[C@@]2(C)CCC(=O)NC[C@@H](C)OP(=O)([O-])O[C@H]2[C@@H](O)[C@@H](n3cnc4cc(C)c(C)cc43)O[C@@H]2CO)[C@]2(C)N=C(/C(C)=C3N=C(/C=C4N=C1[C@@H](CCC(N)=O)C\4(C)C)[C@@H](CCC(N)=O)[C@]\3(C)CC(N)=O)[C@@H](CCC(N)=O)[C@]2(C)CC(N)=O.[CH2-][C@H]1O[C@@H](n2cnc3c(N)ncnc32)[C@@H](O)[C@@H]1O.[Co+3] [Cobamamide, cobamamide, reference compound]
- IC50 [2]: 0.41 µM

SMILES: CC(C)(C)c1cc(O)c(C(C)(C)C)cc1O [BHQ, reference compound]
- IC50 [2]: 23.3 µM

SMILES: OCCN1CCN(CC/C=C2/c3ccccc3Sc3ccc(C(F)(F)F)cc32)CC1 [Flupentixol (e.g., dihydrochloride), Flupentixol, reference compound]
- IC50 [2]: 3.6 µM

SMILES: CCCCC(CC)COC(=O)c1ccc(N(C)C)cc1 (stereo not shown) [Padimate O]
- IC50 [2]: 5.44 µM

SMILES: O=C1C(Cl)=C(NCCN2CCOCC2)C(=O)c2ncccc21 [NSC 663284, reference compound]
- IC50 [2]: 0.614 µM

SMILES: N#CC(C#N)=Cc1ccc(O)c(O)c1 [Tyrphostin 23, tyrphostin 23, reference compound]
- IC50 [2]: 14.6 µM

SMILES: Cc1cc(N)c2ccccc2c1O [Vitamin K5]
- IC50 [2]: 19.6 µM

SMILES: O=[N+]([O-])c1ccc2nc(N3CCNCC3)ccc2c1 [6-Nitroquipazine, reference compound]
- IC50 [2]: 16.4 µM

SMILES: C[C@@H]1C[C@H]2[C@@H]3CCC4=CC(=O)C=C[C@]4(C)[C@@]3(Cl)[C@@H](O)C[C@]2(C)[C@@]1(O)C(=O)CCl [Mometasone (e.g., furoate), mometasone, reference compound]
- IC50 [2]: 11.3 µM

SMILES: COc1cc2ncnc(Nc3cccc(Cl)c3)c2cc1OC [Tyrphostin Ag 1478, tyrphostin AG 1478, reference compound]
- IC50 [2]: 3.41 µM

SMILES: CC(=O)[O][Pt]([NH2])([Cl])([Cl])([NH]C1CCCCC1)[O]C(C)=O [Satraplatin, reference compound]
- IC50 [2]: 4.8 µM

SMILES: N#C/C(=C/c1ccc(O)c(O)c1)C(=O)NCc1ccccc1 [AG-490, tyrphostin AG-490, reference compound]
- IC50 [2]: 5.03 µM

SMILES: O=C1Nc2ccc3ncsc3c2/C1=C/c1cnc[nH]1 [PKR inhibitor, reference compound]
- IC50 [2]: 1.75 µM
